Assay results: patent US20080227757A1, “Formulation for dermal application” (priority 2005, published 2008)

Assay: Permeation of active ingredient from formulations through isolated human Stratum corneum (modified Franz cell)
Settings: active ingredient in the inventive formulation
Method: To determine the permeation of an active ingredient from the inventive formulation compared to conventional formulations containing active ingredients pharmaceutical preparations containing 5-aminolevulinic acid were tested in vitro on isolated human skin.
Human Stratum corneum, originating from biopsies of plastic operations, was used as isolated human skin. Following the biopsy subcutaneous fat was removed and the skin was frozen in liquid nitrogen, then stored at −25° C. After gradual thawing the Stratum corneum was isolated by trypsination on filter paper, and impregnated with an aqueous 2% trypsin solution. After incubation at 37° C. for 24 h the Stratum corneum could be lifted off, incubated in a 0.01% aqueous solution trypsin inhibitor and then washed several times in water. This isolated horny layer was dried and stored at room temperature in the desiccator. For permeation examinations a modified Franz cell was used, the compartments of which were separated off through the Stratum corneum. Pretreatment of the Stratum corneum is done by total hydration in water and placement on a polycarbonate filter (Isopor membrane filter, type TMTP, 5.0 μm, Millipore) to boost mechanical stability. The donor compartment was filled with inventive or respectively comparative formulation containing 5-aminolevulinic acid, whereby 5-aminolevulinic acid at 10% by weight was contained in the formulations.
The preparation containing 5-aminolevulinic acid, procurable according to Example 2, was tested for permeation as inventive preparation, as compared to a formulation with conventional cream base according to the German Pharmacopoeia (70 parts water, 30 parts hydrophilic salve from 30 parts emulsifying cetylstearyl alcohol (type A), 35 parts viscid paraffin and 35 parts soft Vaseline), and in comparison to a formulation in dolgit microgel (5% by weight ibuprofen, in 2-propanol, dimethyl isosorbide, poloxamer, medium-chain triglycerides, lavender oil, neroli oil and water).
After application the quantity of active ingredient permeated through the skin was measured.

permeation of the active ingredient from the inventive formulation through the human Stratum corneum	Compound
improvement in permeation	CC(=O)Oc1ccccc1C(=O)O [acetylsalicylic acid]
improvement in permeation	CC(=O)OCC(=O)[C@@]1(O)CC[C@H]2[C@@H]3CCC4=CC(=O)CC[C@]4(C)[C@H]3[C@@H](O)C[C@@]21C [hydrocortisone acetate]
improvement in permeation	CN(C/C=C/C#CC(C)(C)C)Cc1cccc2ccccc12 [terbinafine]
improvement in permeation	Clc1ccccc1C(c1ccccc1)(c1ccccc1)n1ccnc1 [clotrimazole]

Assay: Octanol-water distribution coefficient (log P), lipophily
Settings: octanol water, pH 7.4, 21° C.
Method: The lipophily value P gives low lipophility at a low value of the logarithm of P (log P), and a high value of the log P gives high lipophily. The distribution coefficient P is measured at pH 7.4 and 21° C. in octanol water.

log P	Compound
1.494	NCC(=O)CCC(=O)OC1CCCCC1 [5-ALA-cyclohexylester]
1.839	CCCCCCOC(=O)CCC(=O)CN [5-ALA-hexylester]
2.6199	CCCCCCCCOC(=O)CCC(=O)CN [5-ALA-octylester]
0.8411	CCOC(=O)CCC(=O)CN [5-ALA-ethylester]

Same assay, conditions: octanol/water, pH 7.4

logP	Compound
-1.15	CC(=O)Oc1ccccc1C(=O)O [acetylsalicylic acid]
3.3	CN(C/C=C/C#CC(C)(C)C)Cc1cccc2ccccc12 [terbinafine]
-1.52	NCC(=O)CCC(=O)O [Example 5-ALA, 5-aminolevulinic acid]
1.42	CCCCOC(=O)CCC(=O)CN [5-ALA-butylester, 5-aminolevulinic acid butyl ester]

Same assay, conditions: pH 7.4

logP	log P	Compound
2.18	–	CC(=O)OCC(=O)[C@@]1(O)CC[C@H]2[C@@H]3CCC4=CC(=O)CC[C@]4(C)[C@H]3[C@@H](O)C[C@@]21C [hydrocortisone acetate]
–	−0.9423	COC(=O)CCC(=O)CN [5-ALA-methylester, methyl ester of 5-aminolevulinic acid]
4.1	–	Clc1ccccc1C(c1ccccc1)(c1ccccc1)n1ccnc1 [clotrimazole]
